In patent US11091740B2, “Composition for inducing dedifferentiation into cancer stem cells comprising ribosome-activating inhibitor as active ingredient, cancer organoid culture method and anticancer drug screening platform based thereon” (priority 2016, dated 2021):

Legend:
colon cancer cell lines = experiment: Spheroid culture with ribosome-inactivating stress exposure, CD44/CD133 flow cytometry; assay type: cell-based; details: RIS-1 10 ng/mL or RIS-2 50 ng/mL pretreated for 6 hours, spheroid cultured 6 days, compared with control
Protocol: Colon cancer cell lines were purchased from ATCC (Manassas, USA), a cell line distribution company. Cells were maintained with RPMI medium supplemented with 10% (v/v) fetal bovine serum (FBS) and 5% mixed antibiotics (50 units/mL penicillin and […] streptomycin) (welgene, Daegu, South Korea) in a 5% CO2-humidified incubator at 37° C. […] First, the cultured spheroid cells were dissociated into single cells by trypsinization, washed with phosphate buffer solution, incubated with FITC-conjugated CD44 (BD pharmingen) and APC-conjugated CD133 (MACS, Miltenyi Biotec) antibodies for 15 min, and then the expression of CD44 and CD133 positive cells was analyzed by flow cytometry (Becton Dickinson FACS Canto Il BD Bioscience, San Jose, Calif., USA).

epithelial cancer cells = experiment: Single versus repeated exposure to ribosome-inactivating stress, CD44/CD133 flow cytometry; assay type: cell-based; details: for cancer stem cells (CD44 and CD133) after a first temporary exposure: exposed once for 24 hours, spheroid cultured in stem cell medium, sub-cultured three times; for CD44 and CD133 positive stem cell groups in chronic exposure: exposure in each subculture, total of 3 exposures
Protocol: To reconfirm that ribosome-inactivating stress (RIS1, RIS2) is a key factor for inducing the dedifferentiation of epithelial cancer cells, the cells were exposed to ribosome-inactivating stress once for 24 hours, spheroid cultured in a stein cell culture medium for 6 days. In the experimental groups which sub-cultured in three times; and sub-cultured while exposing to the ribosome-inactivating stress on the optimum medium for cancer stem cell in each subculture (total of 3 exposures), cancer stem cells were compared quantitatively by flow cytometry with CD44 and CD133 as the marker thereof.

[1] = test system: Colorectal cancer cell lines; experiment: Cell line-based cancer organoid, CD44 (+) cells by flow cytometry; details: RIS-1 10 ng/mL or RIS-2 50 ng/mL pretreated for 6 hours, spheroid, organoid culture 12 days
Protocol: Colorectal cancer cell lines were pretreated with ribosome-inactivating stress, RIS-1 of 10 ng/mL or RIS-2 of 50 ng/mL for 6 hours to form spheroid. Cancer organoid is formed by using spheroid induced from cancer stem cells increased by the ribosome-inactivating stress. A cancer organoid culture technique was developed from cancer stem cells increased by ribosome-inactivating stress. 100 μl of a culture medium containing 200-400 spheroid cells of about 100 μm in size among the cultured spheroids was mixed with an equal amount of a ice-cold matrigel (BD #35424, USA) and divided as a dome in a 24-well culture dish preheated in the cell incubator. Organoid formation (changes in crypt-villus domain production, morphology and size changes, etc.) is monitored by filling the organoid culture medium (STEMCELLS) so as not to reach the cell-matrigel dome and incubating for 12 days (FIG. 7A). The final cultured organoid is tested by immunohistochemistry and flow cytometry. After washing with ice-cold PBS, the organoid was separated from the matrigel and fixed with 0.1% tritonX-100, 4% PFA and immunostained. E-cadherin, an epithelial cell factor, mucin-2, a goblet cell marker for differentiated intestinal cells and F-actin for confirming cell structure formation are examined to confirm the formation of an intestinal organoid (FIG. 7A). […]

[2] = test system: CMT-93 mouse colorectal cancer cell line; experiment: Allograft of RIS-2 pretreated cancer cells, epithelial mesenchyme transition markers by immunohistochemistry; assay type: in vivo; details: cells pretreated with RIS-2 50 ng/mL for 6 hours, subcutaneous in C57BL/6 mice, 5-FU i.p. on day 7, tumors excised 24 h later
Protocol: Cancer stem cells have been identified as a major cause of cancer progression, metastasis, recurrence, and resistance to anticancer drugs. In order to investigate the in vivo activity of cancer stem cells produced by the exposure to ribosome-inactivating stress, epithelial mesenchyme transition (EMT) phenomenon, which is an in vivo phenotype representing the characteristics of cancer stem cells was examined. The in vivo activity of cancer stem cells was determined by the degree of epithelial mesenchyme transition, which is verified by the decrease of E-cadherin, an epithelial cell marker and the increase of the protein expression of N-cadherin and vimentin, mesenchymal marker. For this purpose, in vivo experiment using allografts of cancer cells was performed. The CMT-93 mouse colorectal cancer cell line was cultured in DMEM (Welgene, Daegu, South Korea) supplemented with 10% (v/v) fetal bovine serum (FBS) and 5% mixed antibiotics (50 units/mL penicillin, […] streptomycin) in a 5% CO2, 37 humidified incubator at 37° C. CMT-93 cells (5×10^6) pretreated with RIS-2 (50 ng/mL) for 6 hours were resuspended with 200 μL of PBS and injected subcutaneously into a 14-week-old male C57BL/6 mice. Seven days later, […] anticancer drug 5-FU was intraperitoneally injected and tumors were excised surgically 24 h later. Solid tumors were obtained by immunohistochemistry using E-cadherin (1:200, BD Science), N-cadherin (1:200, BD Science), vimentin (1:200, Cell signaling) specific antibodies. The excised solid tumors were fixed in 4% paraformaldehyde, embedded in paraffin, and sectioned to prepare slice slide specimens. After dehydration and antibody binding, spatial expression of protein expression in tissues was investigated by 3,3-diaminobenzidine (DAB) substrate reaction and relative expression of DAB versus hematoxylin-positive cells was quantified by a tissue analysis software (Histo Quest, TissueGnotics).

[3] = test system: Cancer stem cell cultured spheroid; experiment: 5-FU response of cancer stem cell cultured spheroid, PI/AnnexinV flow cytometry; assay type: cell-based; details: 5-FU 375 μM for 48 hours
Protocol: The drug effect close to human physiological activity can be confirmed by monitoring the anticancer drug response of heterogeneous cancer cells containing a plurality of cancer stem cells induced by the exposure of ribosome-inactivating stress. […] Cancer stem cell cultured spheroid were treated with 5-FU (375 μM) for 48 hours and apoptotic cells were quantified by flow cytometry using propidium iodide (PI) and AnnexinV-FITC (1:200) as markers. The number of apoptotic cells positive for both PI and AnnexinV for 5-FU was higher in the control (−) group, but the drug reactivity was better, but those in the general spheroid culture (DMSO) were decreased.

| SMILES | CD44 and CD133 positive cells representing cancer stem cell group (colon cancer cell lines) | cancer stem cells (CD44 and CD133) after a first temporary exposure (epithelial cancer cells) | CD44 and CD133 positive stem cell groups in chronic exposure (epithelial cancer cells) | CD44 (+) cancer stem cell group in cultured cancer organoid [1] | epithelial cell marker E-cadherin in solid tumors [2] | mesenchymal cell marker N-cadherin in solid tumors [2] | mesenchymal cell marker vimentin protein in solid tumors [2] | number of apoptotic cells positive for both PI and AnnexinV ([3]; control (−) group) | number of apoptotic cells positive for both PI and AnnexinV ([3]; general spheroid culture (DMSO)) | drug reactivity (apoptotic cells) ([3]; spheroid containing cancer stem cell group induced by ribosome-inactivating stress) |
| --- | --- | --- | --- | --- | --- | --- | --- | --- | --- | --- |
| COc1ccc(C[C@H]2NC[C@H](O)[C@H]2OC(C)=O)cc1 [RIS-1, anisomycin] | significantly increased | maintained continuously | increased significantly | significantly increased |  |  |  |  |  |  |
| CC1=C[C@H]2O[C@@H]3[C@H](O)C[C@](C)([C@@]2(CO)[C@H](O)C1=O)[C@]31CO1 [RIS-2, deoxynivalenol] | significantly increased | maintained continuously | increased significantly | significantly increased | decreased | significantly increased | significantly increased |  |  |  |
| O=c1[nH]cc(F)c(=O)[nH]1 [5-FU, fluorouracil] |  |  |  |  |  |  |  | higher | decreased | further reduced |
